Test results reported in patent US7247634B2, “Rifamycin derivatives effective against drug-resistant microbes” (Cumbre Pharmaceuticals Inc., priority 2004, dated 2007).
In brackets after ≈: the same amount, converted by molar mass. Where two headings read alike, the source gives them in different places.

Legend:
Type in all cases: cell-based
[1] = system: Escherichia coli ATCC25922; experiment: MIC, microbroth dilution (NCCLS); settings: rifS strain, Cation-Adjusted Mueller-Hinton Broth, 37° C., read-out: Antimicrobial activity (MIC)
[2] = system: Haemophilus influenzae ATCC10211; experiment: MIC, microbroth dilution (NCCLS); settings: rifS strain, BHI Broth with NAD and hematin, 37° C., read-out: Antimicrobial activity (MIC)
[3] = system: Staphylococcus aureus EN1252a gyrA^S84L grlA^S80F; experiment: microbe, parasite or virus in culture; settings: read-out: Antimicrobial activity (MIC)
How it was run: (§1)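 MICs by NCCLS broth microdilution, incubation at 37 °C, in cation-adjusted Mueller-Hinton broth. Strains: rifampin-resistant S. aureus ATCC 29213 with rpoB D417Y or H418Y, and quinolone-resistant EN1252a carrying gyrA S84L plus grlA S80F.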

[4] = system: Staphylococcus aureus ATCC29213 rpoB^H418Y; experiment: microbe, parasite or virus in culture
How it was run: as §1

[5] = system: Staphylococcus aureus ATCC29213 rpoB^D417Y; experiment: microbe, parasite or virus in culture
How it was run: as §1

[6] = system: Staphylococcus epidermidis ATCC12228; experiment: MIC, microbroth dilution (NCCLS); settings: rifS strain, Cation-Adjusted Mueller-Hinton Broth, 37° C., read-out: Antimicrobial activity (MIC)
[7] = system: Streptococcus pneumoniae ATCC6303; experiment: MIC, microbroth dilution (NCCLS); settings: rifS strain, THY Broth with 1 mg/mL catalase, 5% CO2, 37° C., read-out: Antimicrobial activity (MIC)
[8] = system: Streptococcus pyogenes ATCC19615; experiment: MIC, microbroth dilution (NCCLS); settings: rifS strain, THY Broth, 37° C., read-out: Antimicrobial activity (MIC)
[9] = system: Staphylococcus aureus ATCC29213; experiment: MIC, microbroth dilution (NCCLS); settings: rifS strain, Cation-Adjusted Mueller-Hinton Broth, 37° C., read-out: Antimicrobial activity (MIC)
[10] = system: Enterococcus faecalis ATCC29212; experiment: MIC, microbroth dilution (NCCLS); settings: rifS strain, BHI Broth, 37° C., read-out: Antimicrobial activity (MIC)
[11] = system: Mycobacterium smegmatis ATCC700084; experiment: MIC, microbroth dilution (NCCLS); settings: Mycolicibacterium smegmatis, rifS strain, Middlebrook Broth plus ADC Enrichment, 37° C., read-out: Antimicrobial activity (MIC)
[12] = MIC, rifampin-susceptible Gram-positive strains (panel); settings: across five rifampin-susceptible Gram-positive strains
Procedure: (§2) Representative compounds were assayed for antimicrobial activity as follows: Minimum Inhibitory Concentrations (“MICs”) were determined by the microbroth dilution method as per NCCLS guidelines (National Committee for Clinical Laboratory Standards. 2000. Methods for dilution antimicrobial susceptibility tests for bacteria that grow aerobically, 5th ed. M7-A5. National Committee for Clinical Laboratory Standards, Wayne, Pa.), except that all growth incubations were conducted at 37° C. Bacterial cultures were tested in the following bacteriological media: S. aureus, S. epidermidis, and E. coli in Cation-Adjusted Mueller-Hinton Broth, S. pneumoniae in THY Broth supplemented with 1 mg/mL catalase under 5% CO2 atmosphere, S. pyogenes in THY Broth, E. faecalis in BHI Broth, H. influenzae in BHI Broth supplemented with 0.75 μL of 1 mg/mL NAD and 150 μL of 1 mg/ml hematin per 5 mL, and M. smegmatis in Middlebrook Broth plus ADC Enrichment.
(§3) S. aureus ATCC […], S. epidermidis ATCC 12228, S. pneumoniae ATCC6303, S. pyogenes ATCC 19615 and E. faecalis ATCC 29212 are rifampin-susceptible Gram-positive strains. […] H. influenzae ATCC 10211 and E. coli ATCC 25922 are Gram-negative bacteria.

[13] = system: H. influenzae ATCC 10211 and E. coli ATCC 25922; experiment: MIC, Gram-negative bacteria (panel); settings: across two Gram-negative strains
Procedure: as §2, §3

[14] = ATCC29213, read-out: Antimicrobial activity (MIC)

Molecule COc1c(N2CCN(C(=O)C3CCN(C4=C5NC(=O)/C(C)=C\C=C\[C@H](C)[C@H](O)[C@@H](C)[C@@H](O)[C@@H](C)[C@H](OC(C)=O)[C@H](C)[C@@H](OC)/C=C/O[C@@]6(C)Oc7c(C)c(O)c(c(c7C6=O)C4=O)C5=O)CC3)CC2)c(F)cc2c(=O)c(C(=O)O)cn(C3CC3)c12 [Example 51, 3-{4-[4-(3-Carboxy-1-cyclopropyl-6-fluoro-8-methoxy-4-oxo-1,4-dihydroquinolin-7-yl)-piperazin-1-ylcarbonyl]-piperidin-1-yl}rifamycin S] has an MIC [1] of 0.125 to 8 µg/mL (≈ 0.107 to 6.86 µM), an MIC [2] of 0.125 to 2 µg/mL (≈ 0.107 to 1.71 µM) and an MIC [3] of 0.004 to 0.5 µg/mL (≈ 0.00343 to 0.429 µM). It also gave an MIC [4, 14] of 0.06 to 16 µg/mL (≈ 0.0514 to 13.7 µM), an MIC [5, 14] of 0.06 to 32 µg/mL (≈ 0.0514 to 27.4 µM) and an MIC [6] of 0.008 to 0.063 µg/mL (≈ 0.00686 to 0.054 µM). For the same molecule, the MIC [7] was 0.008 to 0.125 µg/mL (≈ 0.00686 to 0.107 µM), the MIC [8] was 0.008 to 0.063 µg/mL (≈ 0.00686 to 0.054 µM) and the MIC [9] was 0.004 to 0.5 µg/mL (≈ 0.00343 to 0.429 µM). The MIC [10] was 2 to 32 µg/mL (≈ 1.71 to 27.4 µM) and the MIC [11] was 0.5 to 64 µg/mL.
For COc1c(N2CC(NC(=O)C3CCN(C4=C5NC(=O)/C(C)=C\C=C\[C@H](C)[C@H](O)[C@@H](C)[C@@H](O)[C@@H](C)[C@H](OC(C)=O)[C@H](C)[C@@H](OC)/C=C/O[C@@]6(C)Oc7c(C)c(O)c(c(c7C6=O)C4=O)C5=O)CC3)C2)c(F)cc2c(=O)c(C(=O)O)cn(C3CC3)c12 [Example 53, 3-{4-[1-(3-Carboxy-1-cyclopropyl-6-fluoro-8-methoxy-4-oxo-1,4-dihydroquinolin-7-yl)-azetidin-3-ylcarbamoyl]-piperidin-1-yl}rifamycin S], the MIC [1] was 0.125 to 8 µg/mL (≈ 0.108 to 6.94 µM), the MIC [2] was 0.125 to 2 µg/mL (≈ 0.108 to 1.74 µM) and the MIC [3] was 0.004 to 0.5 µg/mL (≈ 0.00347 to 0.434 µM). For the same molecule, the MIC [4, 14] was 0.06 to 16 µg/mL (≈ 0.0521 to 13.9 µM), the MIC [5, 14] was 0.06 to 32 µg/mL (≈ 0.0521 to 27.8 µM) and the MIC [6] was 0.008 to 0.063 µg/mL (≈ 0.00694 to 0.0547 µM). It also gave an MIC [7] of 0.008 to 0.125 µg/mL (≈ 0.00694 to 0.108 µM), an MIC [8] of 0.008 to 0.063 µg/mL (≈ 0.00694 to 0.0547 µM) and an MIC [9] of 0.004 to 0.5 µg/mL (≈ 0.00347 to 0.434 µM). For the same molecule, the MIC [10] was 2 to 32 µg/mL (≈ 1.74 to 27.8 µM) and the MIC [11] was 0.5 to 64 µg/mL.
CO[C@H]1/C=C/O[C@@]2(C)Oc3c(C)c(O)c4c(c3C2=O)C(=O)C(N2CCN(c3nc5c(cc3F)c(=O)c(C(=O)O)cn5C3CC3)CC2)=C(NC(=O)/C(C)=C\C=C\[C@H](C)[C@H](O)[C@@H](C)[C@@H](O)[C@@H](C)[C@H](OC(C)=O)[C@@H]1C)C4=O [Example 55, 3-[1-(3-Carboxy-1-cyclopropyl-6-fluoro-4-oxo-1,4-dihydro-[1,8]naphthyridine-7-yl)-piperazin-4-yl]-rifamycin S] showed an MIC [1] of 0.125 to 8 µg/mL (≈ 0.122 to 7.8 µM), an MIC [2] of 0.125 to 2 µg/mL (≈ 0.122 to 1.95 µM) and an MIC [3] of 0.004 to 0.5 µg/mL (≈ 0.0039 to 0.487 µM). The MIC [4, 14] was 0.06 to 16 µg/mL (≈ 0.0585 to 15.6 µM), the MIC [5, 14] was 0.06 to 32 µg/mL (≈ 0.0585 to 31.2 µM) and the MIC [6] was 0.008 to 0.063 µg/mL (≈ 0.0078 to 0.0614 µM). For the same molecule, the MIC [7] was 0.008 to 0.125 µg/mL (≈ 0.0078 to 0.122 µM), the MIC [8] was 0.008 to 0.063 µg/mL (≈ 0.0078 to 0.0614 µM) and the MIC [9] was 0.004 to 0.5 µg/mL (≈ 0.0039 to 0.487 µM). For the same molecule, the MIC [10] was 2 to 32 µg/mL (≈ 1.95 to 31.2 µM) and the MIC [11] was 0.5 to 64 µg/mL.
CO[C@H]1/C=C/O[C@@]2(C)Oc3c(C)c(O)c4c(c3C2=O)C(=O)C(N2CCCC3(CCN(c5nc6c(cc5F)c(=O)c(C(=O)O)cn6-c5ccc(F)cc5F)C3)C2)=C(NC(=O)/C(C)=C\C=C\[C@H](C)[C@H](O)[C@@H](C)[C@@H](O)[C@@H](C)[C@H](OC(C)=O)[C@@H]1C)C4=O (some centres unmarked) [Example 60] gave an MIC [1] of 0.125 to 8 µg/mL (≈ 0.108 to 6.94 µM), an MIC [2] of 0.125 to 2 µg/mL (≈ 0.108 to 1.74 µM) and an MIC [3] of 0.004 to 0.5 µg/mL (≈ 0.00347 to 0.434 µM). For the same molecule, the MIC [4, 14] was 0.06 to 16 µg/mL (≈ 0.0521 to 13.9 µM), the MIC [5, 14] was 0.06 to 32 µg/mL (≈ 0.0521 to 27.8 µM) and the MIC [6] was 0.008 to 0.063 µg/mL (≈ 0.00694 to 0.0547 µM). The MIC [7] was 0.008 to 0.125 µg/mL (≈ 0.00694 to 0.108 µM), the MIC [8] was 0.008 to 0.063 µg/mL (≈ 0.00694 to 0.0547 µM) and the MIC [9] was 0.004 to 0.5 µg/mL (≈ 0.00347 to 0.434 µM). For the same molecule, the MIC [10] was 2 to 32 µg/mL (≈ 1.74 to 27.8 µM) and the MIC [11] was 0.5 to 64 µg/mL.
Molecule CO[C@H]1/C=C/O[C@@]2(C)Oc3c(C)c(O)c4c(O)c(c(/C=N/N5CCN(C)CC5)c(O)c4c3C2=O)NC(=O)/C(C)=C\C=C\[C@H](C)[C@H](O)[C@@H](C)[C@@H](O)[C@@H](C)[C@H](OC(C)=O)[C@@H]1C [rifampin, reference compound] has an MIC [12] of 0.008 to 1 µg/mL (≈ 0.00972 to 1.22 µM), an MIC [1] of 16 µg/mL (≈ 19.4 µM) and an MIC [13] of 0.24 to 16 µg/mL (≈ 0.292 to 19.4 µM). The MIC [2] was 0.24 µg/mL (≈ 0.292 µM), the MIC [3] was 0.004 µg/mL (≈ 0.00486 µM) and the MIC ([4]; ATCC29213) was 8 µg/mL (≈ 9.72 µM). The MIC [4, 14] was 8 µg/mL (≈ 9.72 µM), the MIC ([5]; ATCC29213) was greater than 64 µg/mL and the MIC [5, 14] was greater than 64 µg/mL. For the same molecule, the MIC [6] was 0.03 µg/mL (≈ 0.0365 µM), the MIC [7] was 0.061 µg/mL (≈ 0.0741 µM) and the MIC [8] was 0.013 µg/mL (≈ 0.0158 µM). For the same molecule, the MIC [9] was 0.008 µg/mL (≈ 0.00972 µM), the MIC [10] was 1 µg/mL (≈ 1.22 µM) and the MIC [11] was 64 µg/mL.
